According to the NIST ThermoML archive (doi:10.1016/j.jct.2003.08.017):

Columns and labels:
[1] = Molar enthalpy of transition or fusion; details: Crystal
[2] = Crystal
[3] = molar heat capacity at constant pressure; details: 101.33 kPa, Small (less than 1 g) adiabatic calorimetry

OCC1c2ccccc2-c2ccccc21 [9-fluorenemethanol]
Details | Molar enthalpy of transition or fusion [kcal/mol] | Triple point temperature [K]
[1] | 6.279 | –
[2] | – | 376.57

[3]
Details | molar heat capacity at constant pressure [J/K/mol]
78.5 K, Crystal | 74.59
79.9 K, Crystal | 75.63
82.26 K, Crystal | 77.22
84.64 K, Crystal | 78.94
85.94 K, Crystal | 79.76
87.24 K, Crystal | 80.69
88.54 K, Crystal | 81.69
89.84 K, Crystal | 82.71
91.05 K, Crystal | 83.42
92.27 K, Crystal | 84.33
93.81 K, Crystal | 85.44
95.68 K, Crystal | 86.83
97.47 K, Crystal | 88.34
99.25 K, Crystal | 89.58
101.04 K, Crystal | 90.8
102.74 K, Crystal | 92
104.45 K, Crystal | 93.28
106.15 K, Crystal | 94.37
107.78 K, Crystal | 95.55
110.05 K, Crystal | 97.38
112.81 K, Crystal | 99.34
115.57 K, Crystal | 101.09
118.25 K, Crystal | 103.07
120.84 K, Crystal | 105.05
123.44 K, Crystal | 107.15
126.04 K, Crystal | 109.39
128.55 K, Crystal | 111.1
131.07 K, Crystal | 112.95
133.5 K, Crystal | 114.39
135.94 K, Crystal | 116.5
138.38 K, Crystal | 118.22
140.73 K, Crystal | 120.24
143.08 K, Crystal | 121.92
145.44 K, Crystal | 123.49
147.79 K, Crystal | 125.56
150.06 K, Crystal | 127.26
152.34 K, Crystal | 129.25
154.61 K, Crystal | 130.86
156.8 K, Crystal | 132.44
158.99 K, Crystal | 134.22
161.18 K, Crystal | 136.08
163.38 K, Crystal | 137.61
165.57 K, Crystal | 139.23
167.68 K, Crystal | 141.01
169.87 K, Crystal | 142.68
171.98 K, Crystal | 144.26
174.09 K, Crystal | 145.97
176.12 K, Crystal | 147.81
178.23 K, Crystal | 149.54
180.26 K, Crystal | 151.27
182.29 K, Crystal | 153.26
184.32 K, Crystal | 155.07
186.35 K, Crystal | 156.65
188.38 K, Crystal | 158.43
190.32 K, Crystal | 160.03
192.27 K, Crystal | 161.75
194.22 K, Crystal | 163.44
196.17 K, Crystal | 165.02
198.12 K, Crystal | 167.02
200.06 K, Crystal | 168.41
201.93 K, Crystal | 170.12
203.88 K, Crystal | 172.09
205.75 K, Crystal | 173.99
207.69 K, Crystal | 175.77
209.56 K, Crystal | 177.8
211.43 K, Crystal | 179.56
213.21 K, Crystal | 181.31
215.08 K, Crystal | 183.23
216.95 K, Crystal | 185.04
218.73 K, Crystal | 186.49
220.52 K, Crystal | 188.39
222.38 K, Crystal | 190.43
224.17 K, Crystal | 192.38
225.96 K, Crystal | 194.23
227.66 K, Crystal | 195.8
229.45 K, Crystal | 197.65
231.15 K, Crystal | 199.09
232.86 K, Crystal | 201.07
234.64 K, Crystal | 202.79
236.35 K, Crystal | 203.84
238.05 K, Crystal | 205.56
239.75 K, Crystal | 207.12
241.46 K, Crystal | 208.72
243.08 K, Crystal | 210.03
244.71 K, Crystal | 211.22
246.41 K, Crystal | 212.28
248.12 K, Crystal | 213.72
249.74 K, Crystal | 215.05
251.36 K, Crystal | 216.5
253.07 K, Crystal | 218.21
254.69 K, Crystal | 219.66
256.31 K, Crystal | 220.83
257.94 K, Crystal | 221.75
259.56 K, Crystal | 223.22
261.18 K, Crystal | 224.27
262.73 K, Crystal | 225.73
264.35 K, Crystal | 226.9
265.97 K, Crystal | 228.35
267.6 K, Crystal | 229.68
269.14 K, Crystal | 231.11
270.68 K, Crystal | 232.43
272.14 K, Crystal | 233.76
273.68 K, Crystal | 235.07
276.77 K, Crystal | 237.44
280.83 K, Crystal | 240.46
284.15 K, Crystal | 243.34
287.89 K, Crystal | 246.4
291.22 K, Crystal | 248.63
294.46 K, Crystal | 252.05
297.55 K, Crystal | 255.07
300.71 K, Crystal | 258.24
303.8 K, Crystal | 261.53
306.96 K, Crystal | 265.22
310.05 K, Crystal | 268.37
313.05 K, Crystal | 272.08
316.13 K, Crystal | 275.5
319.22 K, Crystal | 279.32
322.22 K, Crystal | 283
325.23 K, Crystal | 287.49
328.23 K, Crystal | 292.62
331.15 K, Crystal | 297.89
334.07 K, Crystal | 303.26
337 K, Crystal | 308.39
339.84 K, Crystal | 314.22
342.68 K, Crystal | 320.06
345.44 K, Crystal | 326.47
348.03 K, Crystal | 332.27
350.71 K, Crystal | 338.6
353.31 K, Crystal | 344.72
355.99 K, Crystal | 351.11
358.59 K, Crystal | 357.3
360.94 K, Crystal | 363.05
378.41 K, Liquid | 50.2
379.63 K, Liquid | 50.76
381.41 K, Liquid | 51.75
383.59 K, Liquid | 52.7
385.71 K, Liquid | 53.72
387.58 K, Liquid | 54.67
389.69 K, Liquid | 55.38
